Values quoted from earlier work in patent publication US6977247B2, “Sequential therapy comprising a 20(S)-camptothecin and a pyrimidine base analog” (SuperGen, Inc., priority 2002, dated 2005).

Assays:
[1] = tested on: various types of cancer, including primary cancer and metastasis; conditions: human, in vivo
[2] = administered intravenously; studies abandoned
[3] = tested on: human colon cancer xenografts; conditions: mouse, in vivo

## CC[C@@]1(O)C(=O)OCc2c1cc1n(c2=O)Cc2cc3c([N+](=O)[O-])cccc3nc2-1 [9NC, 9-nitrocamptothecin]
[1]
  tumors known to regress after exposure: breast carcinoma, ovarian carcinoma, cholangiocarcinoma, monomyelocytic leukemia, and pancreatic carcinoma
Human tumor xenografts; immunodeficient nude mice
  growth of human tumor xenografts: inhibited the growth
Human tumor xenografts; nude mice
  regression of human tumors established as xenografts: induced regression

## CC[C@@](O)(C(=O)[O-])c1cc2n(c(=O)c1CO)Cc1cc3ccccc3nc1-2.[Na+] [20(S)-camptothecin Na^+, sodium salt of 20(S)-camptothecin]
[2]
  potency in clinical trials: low potency
  toxicity in clinical trials: high toxicity

## CC[C@@]1(O)C(=O)OCc2c1cc1n(c2=O)Cc2cc3ccccc3nc2-1 [20(S)-camptothecin]
other
  solubility in water: insoluble in water

## CC[C@@]1(O)C(=O)OCc2c1cc1n(c2=O)Cc2cc3c(N)cccc3nc2-1 [9AC, 9-Amino-20(S)-Camptothecin]
[3]
  anticancer activity against human colon cancer xenografts: high anticancer activity

## CC[C@@]1(O)C(=O)OCc2c1cc1n(c2=O)Cc2cc3cc4c(cc3nc2-1)OCO4 [10, 2011 MD, 10, 2011-Methylendioxy-20(S)-Camptothecin]
[3]
  anticancer activity against human colon cancer xenografts: high anticancer activity
